Measured values as given in ChEMBL document CHEMBL3988442, “University of Dundee, Small-Polar-MMV Screening Library” (2021).
Where “and” joins values, the source holds several entries; their conditions need not be identical. Equal entries are not always repeated.

How the values were obtained:
[1] = test system: Mycobacterium tuberculosis; assay: Cornell M. t heat shock assay; format: functional, organism-based; conditions: for IC50: Mycobacterium tuberculosis
Wolbachia pipientis = assay: Anti-Wolbachia Cell-Based Screen; format: functional
[2] = microbe, parasite or virus in culture; conditions: Mycobacterium tuberculosis, 72 h, read-out: pIC50 (converted)
[3] = microbe, parasite or virus in culture; conditions: Mycobacterium tuberculosis, 96 h, read-out: pIC50 (converted)

Compound | IC50 [1] | also measured
O=C(CCC(=O)N1CCC(c2noc3cc(F)ccc23)CC1)NC1CC1 | > 100 µM | –
COC(=O)[C@H](CCSC)NC(=O)Cn1ccc2c(Cl)cccc21 | 70.7 µM | –
Cc1cc(NCc2ccccc2)nc2[nH]nc(N)c12 | 79.8 µM | –
Cc1cc(NCc2ccco2)nc2[nH]nc(N)c12 | > 100 µM | –
Cc1cc(O)cc(=O)n1CCCC(=O)Nc1n[nH]c2cc(Br)ccc12 | > 100 µM | –
Cc1cc(O)cc(=O)n1CCCC(=O)Nc1n[nH]c2cccc(F)c12 | > 100 µM | –
COc1cccc2sc(N3CCN(C(=O)c4cc(C)on4)CC3)nc12 | > 100 µM | –
O=C(NCC(O)c1ccsc1)Nc1cccs1 (stereo not given) | 67.5 µM | –
O=S(=O)(Nc1cnc(N2CCCC2)nc1)c1ccc(OC(F)(F)F)cc1 | > 100 µM | –
O=C(NCCC(O)c1ccoc1)Nc1cccs1 (stereo not given) | > 100 µM | –
Cc1nc(-c2ccccc2)cc2nn(CC(N)=O)c(=O)n12 | > 100 µM | –
CCOc1cccc2c1OCC(=O)N(c1ccc(N(C)C)cc1)C2 | 44.1 µM | –
Cc1cnc(NC(=O)c2csc(NCC(C)C)n2)s1 | 1.99 µM | –
CCn1nc(C)c(CNC(=O)c2nnc3ccc(Cl)cc3n2)c1C | 17.3 µM | –
Cc1ccccc1OC1CCN(CC(=O)Nc2cn(C)nc2C)CC1 | > 100 µM | –
CCCN1CCC(c2cc(CCOc3ccc(C(F)(F)F)cc3)[nH]n2)C1 (stereo not given) | – | pIC50 [1]: < 4 and 4.339
Cc1cc(Nc2ccc(F)cn2)cc(C2CCN(Cc3ncc[nH]3)C2)n1 (stereo not given) | > 100 µM | –

Compound | IC50 [1] | also measured
Cc1cc2ccccc2n1CCC(=O)N1CCN(C)CC1C(N)=O (stereo not given) | > 100 µM | –
CC1CCCN(c2ncc(-c3ccccc3F)c(-c3nccn3C)n2)C1 (stereo not given) | – | pIC50 [1]: 4.289 and 4.7
CN(C)S(=O)(=O)N1CCCCCC1c1cc(-c2ccc(F)cc2)no1 (stereo not given) | > 100 µM | pIC50 [1]: 4.075
Oc1cc(C2CCCN(Cc3cccs3)C2)nc(-c2ccccn2)n1 (stereo not given) | – | pIC50 [1]: 4.835 and 5.179
c1cc(CN2CCCCC2c2ccc(Nc3cnccn3)nc2)ccn1 (stereo not given) | – | pIC50 [1]: < 4 and < 4.31
Fc1ccc(CN2CCCC(c3cc4ncccc4[nH]3)C2)cc1 (stereo not given) | – | pIC50 (Wolbachia pipientis): 5.047; IC50 (Wolbachia pipientis; Wolbachia pipientis): 6.78 µM; IC50 [2]: 33.7 µM; IC50 [3]: 24.3 µM
COc1ccc(CNC(Cc2ccsc2)c2ncccc2C)cc1OC (stereo not given) | > 49 µM | –
COCC(=O)N1CCCC1c1cccc(Nc2ncc(C)s2)n1 (stereo not given) | > 100 µM | –
O=C1CO[C@H]2CN(Cc3cccc4[nH]ccc34)C[C@@H]2N1C1CCOCC1 | > 100 µM | pIC50 [1]: 4.298
Cc1cc(-c2cnc(N3CCCCCC3)nc2-c2cccnc2C)on1 | 68.5 µM | pIC50 [1]: 4.097
Cc1cc(-c2cnc(NC3CCCC3)nc2-c2ccc(C)o2)on1 | > 100 µM | pIC50 [1]: 4.052
COc1ccc(CN2CCc3c(nc(-c4ccccn4)[nH]c3=O)C2)cc1 | – | pIC50 [1]: 4.829 and 5.147
CC1c2ccc(F)cc2CCN1C(=O)c1[nH]c(=O)[nH]c(=O)c1N (stereo not given) | > 100 µM | –
CC1c2cc(F)ccc2CCN1C(=O)c1[nH]c(=O)[nH]c(=O)c1N (stereo not given) | 66.9 µM | –
Cc1[nH]ccc1C(=O)N1CCOCC12CCCC2 | > 100 µM | –
COc1ccc(N2CCC(NCc3csc(C(C)C)n3)CC2)cc1 | > 100 µM | –
